Entries after “also recorded” stand apart in the source; their conditions may differ.
Tests used:
R17 = R17 bacteriophage screen (photoinactivation, plaque assay on Hfr 3000 bacteria); assay type: cell-based; conditions: for Average log Inactivation, 4 μM: compound at 4 μM; for Average log Inactivation, 4 μM / Average log Inactivation, 32 μM: 15% FBS in DMEM, UVA 1 J/cm^2, average of 1-4 replicates; for Average log Inactivation, 32 μM: compound at 32 μM
Excerpt: A discussion of inactivation of pathogens other than the R17 model discussed below can be found in U.S. Pat. No. 5,593,823. This reference enables the selection criteria for use in pathogen inactivation of blood products for the compounds of the present invention. The screening technique used to evaluate the compounds of the present invention is to perform a bacteriophage screen; an assay which determines nucleic acid binding of test compounds. A screen of this type, an R17 screen, is described in detail in EXAMPLE 13, below.
The R17 bacteriophage screen is believed to be predictive of HIV inactivation efficiency, as well as the efficiency of compounds against many other viruses. It is a small, single stranded RNA phage. […] Further, single stranded RNA pathogens are more difficult to inactivate because psoralens can neither intercalate between base pairs, as with double-stranded nucleic acids, nor form diadducts which function as interstrand crosslinks. Thus it is expected that when inactivation of R17 is achieved, these same conditions will cause the inactivation of many viruses and bacteria.
The R17 was grown up in Hfr 3000 bacteria, approximate titer 5×10^11. (R17 and Hfr 3000 were obtained from American Tissue Culture Collection (ATCC), Washington, D.C.) The R17 phage stock was added to a solution of 15% fetal bovine serum in DMEM to a final phage concentration of 10^8/mL. An aliquot (0.5 mL) was transferred to a 1.5 mL snap-top polyethylene tube. An aliquot (0.004-0.040 mL) of the test compound stock solution prepared in water, ethanol or dimethylsulfoxide at 0.5 mM was added to the tube. Compounds were tested at concentrations between 4 μM and 32 μM. (AMT is commercially available from HRI, Inc., Concord, Calif.; 8-MOP is commercially available from Sigma, St. Louis, Mo.). The tubes were placed in a light device similar to that described in U.S. Pat. No. 5,593,823 (Baxter Ultraviolet Irradiation System, modified #4R4440) and irradiated at a dose setting of 1 J/cm^2. Sterile 13 mL dilution tubes were prepared; each test compound required one tube with 0.4 mL of LB broth and five tubes containing 0.5 mL of LB broth. To make the dilutions, a 0.100 mL aliquot of the irradiated solution of phage and test compound was added to the first dilution tube of 0.4 mL of media then 0.020 mL of this solution was added to the second tube of 0.5 mL medium (1:25). The second solution was then diluted serially (1:25) into the remaining tubes. To each diluted sample was added 0.050 mL of Hfr 3000 bacteria cultured overnight and 3 mL of molten LB top agar and the mixed materials were poured onto LB broth plates. After the top agar hardened, the plates were incubated at 37° C. overnight. The plaque forming units were then counted the following morning and the titer of the phage remaining after phototreatment was calculated based on the dilution factors.
The following controls were run: the “phage only” in which phage was not treated with test compound and not irradiated (listed as “starting titer” in the tables below); and the “dark” control in which the phage/test compound solution was not irradiated before it was diluted and plated. A “UV only” control in which the phage was illuminated without treatment with test compound was not run with these experiments.

cell-free HIV (HIV-1) = assay: Inactivation of cell-free HIV, residual infectivity by MT-2 microtiter plaque assay; assay type: cell-based; conditions: compound at 32 μM; 1 minute irradiation 320-400 nm (20 mW/cm^2); DMEM/15% FBS
Method: Pathogen inactivation efficiency of three compounds tested in the previous example were evaluated by examining the ability of the compounds to inactivate cell-free virus (HIV). Inactivation of cell-free HIV was performed as follows.
Small aliquots of the compounds were added to stock HIV-1 to a compound concentration of 32 μM in a total of 0.5 mL. The stock HIV (10^5-10^7 plaque forming units/mL) was in DMEM/15% FBS. The 0.5 mL test aliquots were placed in 24 well polystyrene tissue culture plates and irradiated with 320-400 nm (20 mW/cm^2) for 1 minute on a device similar to the device of EXAMPLE 13. Controls included HIV-1 stock only, HIV-1 plus UVA only, and HIV-1 plus the highest concentration of each psoralen tested, with no UVA. Post irradiation, all samples were stored frozen at −70° C. until assayed for infectivity by a microtiter plaque assay. Aliquots for measurement of residual HIV infectivity in the samples were withdrawn and cultured.
Residual HIV infectivity was assayed using an MT-2 infectivity assay. (Previously described in Hanson, C. V., Crowford-Miksza, L. and Sheppard, H. W., J. Clin. Micro 28:2030 (1990)). The assay medium was 85% DMEM (with a high glucose concentration) containing 100 μg of streptomycin, 100 U of penicillin, 50 μg of gentamicin, and 1 μg of amphotericin B per mL, 15% FBS and 2 μg of Polybrene (Sigma Chemical Co., St. Louis, Mo.) per mL. Test and control samples from the inactivation procedure were diluted in a mixture of 50% assay medium and 50% normal human serum. The samples were serially diluted directly in 96-well plates (Corning Glass Works, corning, N.Y.). The plates were mixed on an oscillatory shaker for 30 seconds and incubated at 37° C. in a 5% CO2 atmosphere for 1 to 18 hours. […] After 24 to 48 hours, the orange fluorescence-stained microplaques were visualized by placing the plates on an 8,000 μW/cm^2 304 nm UV light box (Fotodyne, Inc., New Berlin, Wis.). The plaques were counted at a magnification of ×20 to ×25 through a stereomicroscope.

[1] = Ames assay / bacterial assays, absence of light; cited from earlier work
DNA = conditions: cited from earlier work

SMILES | Average log Inactivation, 4 μM (R17) | Average log Inactivation, 32 μM (R17) | further results
Cc1oc2c(C)c3oc(=O)cc(COCCN)c3cc2c1C [Compound 38, 4-(4-Amino-2-oxa)butyl-4′,5′,8-trimethylpsoralen] | 2.2 log | ≧4.0 log | 
Cc1coc2c(C)c3oc(=O)c(COCCN)c(C)c3cc12 [Compound 37, 3-(4-amino-2-oxa)butyl-4,4′,8-trimethylpsoralen] | 4.3 log | >6.5 log | 
Cc1cc2cc3c(C)c(CCN)c(=O)oc3c(C)c2o1 [Compound 35, 3-amino ethyl-4,5′,8-trimethylpsoralen] | 1.6 log |  | 
Cc1oc2c(C)c3oc(=O)c(CN)c(C)c3cc2c1C [Compound 34, 3-aminomethyl-4,4′,5′,8-tetramethylpsoralen] | 1.4 log |  | Log Kill of cell-free HIV (cell-free HIV (HIV-1)): 3.5 log
Cc1coc2cc3oc(=O)cc(CN)c3cc12 [Compound 42, 4-aminomethyl-4′-methylpsoralen] | 0 log | 1.2 log | 
Cc1oc2c(COCCN)c3oc(=O)cc(C)c3cc2c1C [Compound 40, 8-(4-amino-2-oxa)butyl-4,4′,5′-trimethylpsoralen] | 2.1 log | >6.3 log | 
Cc1coc2cc3oc(=O)c(CN)cc3cc12 [Compound 41, 3-aminomethyl-4′-methylpsoralen] | 0 log | 0.6 log | 
Cc1oc2c(C)c3oc(=O)cc(CN)c3cc2c1C [Compound 36, 4-aminomethyl-4′,5′,8-trimethylpsoralen] | 0.1 log | 1.1 log | 
Cc1coc2c(C)c3oc(=O)c(CN)c(C)c3cc12.Cl [Compound 31, 3-aminomethyl-4,4′,8-trimethylpsoralen hydrochloride] | 3.1 log |  | Log Kill of cell-free HIV (cell-free HIV (HIV-1)): 1.9 log
Cc1oc2c(CN)c3oc(=O)cc(C)c3cc2c1C [Compound 32, 8-aminomethyl-4,4′,5′-trimethylpsoralen] | 1.1 log |  | Log Kill of cell-free HIV (cell-free HIV (HIV-1)): 1.1 log
Cc1cc2cc3c(C)c(COCCN)c(=O)oc3c(C)c2o1 [3-(4-amino-2-oxa)butyl-4,5′,8-trimethylpsoralen] |  |  | Effectiveness of R17 inactivation relative to AMT (R17; similar inactivation at less than half the AMT concentration, data not shown): at least twice as effective as AMT
Cc1oc2cc3oc(=O)ccc3c(COCCN)c2c1C [Compound 39, 5-(4-amino-2-oxa)butyl-4′,5′-dimethylpsoralen] | 1.6 log | >6.6 log | 
Cc1cc2cc3c(C)cc(=O)oc3c(CN)c2o1.Cl [Compound 33, 8-aminomethyl-4,5′-dimethylpsoralen hydrochloride] | 0.4 log | 1.7 log | 
COc1c2occc2cc2ccc(=O)oc12 [Compound 8-MOP, 8-methoxypsoralen] |  |  | Mutagenicity [1]: low mutagenicity; Photoactivated binding to nucleic acids (DNA): relatively low
Cc1oc2c(C)c3oc(=O)cc(C)c3cc2c1CN [AMT, 4′-aminomethyl-4,5′,8-trimethylpsoralen, reference compound] | 1.6 log | >6.5 log | Mutagenicity [1]: highly mutagenic; also recorded: significant levels of mutagenicity

From US6455286B1, “Psoralens for pathogen inactivation” (Cerus Corporation, priority 1997, dated 2002)
